Measured values from patent publication US20220241240A1, “AGENTS AND METHODS FOR INCREASING STEM CELL FUNCTION” (priority 2019, published 2022).

Key:
[1] = test system: bone marrow derived mouse HSCs (mHSCs); test: Mitochondrial membrane potential (TMRM) and mitochondrial mass (Mitotracker) in cultured mHSCs, flow cytometry; assay type: cell-based
Protocol: We first tested the effect of UroA on bone marrow derived mouse HSCs (mHSCs) (FIG. 1A). Freshly isolated mHSCs (LKS CD150+CD48-) were cultured in basal media (Stemline+SCF+FLT3L+Penicillin/Streptomycin) supplemented with different concentrations of UroA. Cells were harvested at day 3 and stained with tetramethylrhodamine methyl ester (TMRM; to measure mitochondria membrane potential) and Mitotracker (to measure mitochondrial mass), and analysed by flow cytometry.
Flow cytometry analysis was performed on freshly isolated bone marrow (BM) from C571316 mice. BM was extracted from crushed femora and tibia. Cell suspension was filtered through a 70 μm cell strainer and erythroid cells were eliminated by incubation with red blood cell lysis buffer (eBioscences). Isolation and stains were performed in ice-cold PBS 1 mM EDTA. Lineage positive cells were then removed with a magnetic lineage depletion kit (BD biosciences). Cell suspensions were then stained with specific antibodies for the stem cell compartment and sorted by FACS (BD FACS Aria 111) into 1.5 ml Eppendorf tubes.
(§1) Murine HSCs were sorted into 1.5 ml Eppendorf tubes and were cultured in Stemline II (SIGMA) supplemented with 100 ng/ml SCF (R&D) and 2 ng/ml Flt3 (R&D). Different concentrations as indicated of UroA (dissolved in DMSO) were added; an equal amount of DMSO was added to the control well.
Mouse HSCs already in culture were incubated at 37° C. for 1 hour with 200 nM tetramethylrhodamine methyl ester (TMRM; Invitrogen) and 100 nM Mitotracker green. Cells were then washed with FACS buffer and analysed by flow cytometry on a BD LSR II.

[2] = test system: human cord blood derived hematopoietic stem and progenitor cells (hHSPCs); test: Mitochondrial membrane potential (TMRM) in cultured hHSPCs (CD34+), flow cytometry; assay type: cell-based; details: days 3, 5 and 7, increasing doses of UroA
Description: We then looked at the effect of UroA on human cord blood derived hematopoietic stem and progenitor cells (hHSPCs) (FIG. 1B). Cryopreserved hHSPCs (CD34+) were thawed and cultured in basal media (Stemspan+SCF+FLT3L+TPO+LDLP+Penicillin/Streptomycin) supplemented with different concentrations of UroA. Aliquots of cells were harvested at days 3, 5 and 7, followed by staining for CD34 and TMRM, and analysed by flow cytometry.
Cryopreserved CD34+ cells isolated from foetal liver/cord blood were thawed and cultured in vitro in StemSpan (Stem cell tech) media supplemented with hSCF (100 ng/ml), hFLT3L (100 ng/ml), hTPO (50 ng/ml), hLDLP (10 μg/ml) and different concentrations of UroA (dissolved in DMSO) were added; an equal amount of DMSO was added to the control well. For longer culture periods half of the media was replenished every 2nd or 3rd day.
Human HSCs already in culture were incubated at 37° C. for 1 hour with 200 nM TMRM (Invitrogen). Cells were then washed with FACS buffer, followed by staining with CD34 antibody for 1 hour at 4° C. Cells were washed with FACS buffer and analysed by flow cytometry on a BD LSR II.

mHSCs [3] = test: In vivo reconstitution by UroA-cultured mHSCs in lethally irradiated recipient mice; design: species or system mouse; details: mHSCs cultured 3 days with 20 μM UroA, injected into lethally irradiated mice
Protocol: Having previously shown that lowering mitochondrial membrane potential enhances HSC function (Vannini, N. et al. (2016) Nat Commun 7: 13125), we asked if UroA treatment improves in vivo reconstitution potential of HSCs. To that end, we cultured freshly isolated mHSCs in basal media without or with UroA (20 μM). At the end of the culture period (3 days) cells were counted and injected into lethally irradiated recipient mice (FIG. 2A).
as §1
C57131/6 Ly5.2 mice were lethally irradiated with a total 8 Gy dose in a gamma radiator 24 h before transplant. Mice were injected with 200 donor cells post culture derived from C57131/6 Ly5.1 mice and 200,000 competitor cells derived from C57131/6 Ly5.1/5.2 mice, via tail-vein injection. Peripheral blood was collected every few weeks to determine the percentage of chimerism by FACS analysis.

[4] = test system: cord blood derived human HSPCs; test: Colony Forming Unit (CFU) assay in methylcellulose; assay type: cell-based; details: hHSPCs cultured 7 days with 50 μM UroA; colonies counted 15 days post plating; versus control
Protocol: Next, we cultured cord blood derived human HSPCs without or with UroA (50 μM) and performed two functional assays: Colony Forming Unit (CFU) assay—7 days post culture and in vivo transplantation assay in new born NSG-SGM3 pups—5 days post culture (FIG. 2B). […] Cryopreserved CD34+ cells isolated from foetal liver/cord blood were thawed and cultured in vitro in StemSpan (Stem cell tech) media supplemented with hSCF (100 ng/ml), hFLT3L (100 ng/ml), hTPO (50 ng/ml), hLDLP (10 μg/ml) and different concentrations of UroA (dissolved in DMSO) were added; an equal amount of DMSO was added to the control well. For longer culture periods half of the media was replenished every 2nd or 3rd day. CFU assays were carried out using H4434 (Stem cell tech) as per the manufacturer's instructions. 1000 cells from each well were plated in duplicate. Colonies were counted 15 days post plating using Stem Vision (Stem cell tech).

[5] = test system: cord blood derived human HSPCs; test: In vivo transplantation assay of UroA-cultured hHSPCs in new born NSG-SGM3 pups; details: hHSPCs cultured 5 days with 50 μM UroA
Protocol: Next, we cultured cord blood derived human HSPCs without or with UroA (50 μM) and performed two functional assays: Colony Forming Unit (CFU) assay—7 days post culture and in vivo transplantation assay in new born NSG-SGM3 pups—5 days post culture (FIG. 2B). […] Cryopreserved CD34+ cells isolated from foetal liver/cord blood were thawed and cultured in vitro in StemSpan (Stem cell tech) media supplemented with hSCF (100 ng/ml), hFLT3L (100 ng/ml), hTPO (50 ng/ml), hLDLP (10 μg/ml) and different concentrations of UroA (dissolved in DMSO) were added; an equal amount of DMSO was added to the control well. For longer culture periods half of the media was replenished every 2nd or 3rd day. NSG mice were purchased from Jackson Laboratory, bred and maintained under pathogen-free conditions in-house. For transplantation, one day old NSG pups were irradiated with 1 Gy (RS-2000, RAD SOURCE) and a few hours later injected intrahepatically with in vitro expanded HSCs. Each pup was injected with a cell mass derived from an initial 50,000 CD34+ cells post in vitro culture. Mice were bled at 12 weeks to estimate human reconstitution levels (% human CD45+ cells) in the peripheral blood. Antibody combinations were used to further estimate human B cells, T cells, monocytes, neutrophils and NK cells.

mHSCs [6] = test: QPCR gene expression analysis on cultured mHSCs; assay type: cell-based, mouse; details: mHSCs cultured with 20 μM UroA versus without
Protocol: To have analyse the molecular mechanisms by which UroA enhances HSC function, we performed gene expression analysis on mHSCs cultured in basal media with or without UroA (20 μM).
RNA was extracted from HSCs post culture using ZR RNA MicroPrep (Zymo Research) and RNA extraction was performed accordingly to the manufacturer's instructions. RNA was retrotranscribed to cDNA with 1st strand cDNA kit (TAKARA) as per the manufacturer's instructions.
For qPCR, 0.5 μl of cDNA, 5 μl of Power Syber Green mastermix (Applied Biosystem) and 500 nM of primers were used to a final volume of 10 μl for each reaction. The reactions were performed on the 7900HT system (Applied Biosystem).

[7] = test system: Human Cord-blood derived HSCPs; test: Limiting transplantation experiment: survival of irradiated adult NSG mice given UroA-cultured HSPCs; assay type: in vivo; details: HSPCs cultured three days with 50 μM UroA, 40,000 cells per irradiated adult NSG mouse; followed eight months; especially early post-transplant phases
Protocol: A) Human cord blood derived HSPCs were cultured in basal media with or without 50 μM UroA. Three days post culture cells were counted and limiting dose (40,000 cells) was injected in each irradiated recipient adult NSG mouse and survival was monitored over several months.
In order to check if a short in vitro treatment with UroA could improve the survival of irradiated recipients post transplantation we designed a limiting transplantation experiment. Human Cord-blood derived HSCPs were cultured for three days in the absence or presence of UroA. Post culture cells were counted and 40,000 cells were injected in each recipient mouse (irradiated NSG adult mice). We followed these mice for several months to check for post transplantation survival.

human HSCs = details: culture media supplemented with nicotinamide riboside; cited from earlier work

O=c1oc2cc(O)ccc2c2ccc(O)cc12 [UroA, 3,8-dihydroxyurolithin]
proportion of cells in the TMRM low gate ([1]; mHSCs (LKS CD150+CD48-), day 3 of culture, increasing doses of UroA): step-wise increase | mitochondrial mass (Mitotracker staining) ([1]; mHSCs, day 3, 20 μM UroA): significant reduction | mitochondrial mass (Mitotracker staining) ([1]; mHSCs, day 3, all concentrations of UroA): decrease in the mitochondrial mass | TMRM fluorescent intensity (Mean Fluorescence Intensity, MFI) ([1]; mHSCs, day 3 of culture, increasing doses of UroA): significant lowering | TMRM signal (Median Fluorescence Intensity, MFI) [2]: concomitant decrease of TMRM signal | proportions of cells in the TMRM low gate [2]: increasing proportions of cells in the TMRM^low gate | reconstitution in myeloid and lymphoid lineages of the blood (mHSCs [3]): This trend was reflected in both the myeloid and lymphoid lineages | blood reconstitution levels of recipients (mHSCs [3]; versus cells cultured without UroA): higher reconstitution levels | numbers of colonies (CFU assay) [4]: significantly higher numbers of colonies | human cell numbers in blood cell lineages ([5]; NSG-SGM3 mice, primarily lymphoid lineage (T and B cells)): higher human cell numbers | human engraftment (proportion and absolute numbers) in blood ([5]; transplanted in irradiated NSG-SGM3 pups): increased human engraftment | expression of ROS protection genes (Foxo1, SOD2), fold change (delta delta CT) (mHSCs [6]): increased expression | expression of autophagy genes (ATGS, PARK2), fold change (delta delta CT) (mHSCs [6]): increased expression | expression of glycolysis genes (HK2, Glut1), fold change (delta delta CT) (mHSCs [6]): increased expression | post transplantation survival of recipient mice [7]: significant improvement in survival

NC(=O)c1ccc[n+]([C@@H]2O[C@H](CO)[C@@H](O)[C@H]2O)c1 [nicotinamide riboside]
levels of engraftment in primary and secondary recipient humanised mice (human HSCs): significantly higher levels of engraftment
